Experimental data: patent US20090227503A1, “PARATHYROID HORMONE TREATMENT FOR ENHANCED ALLOGRAFT AND TISSUE-ENGINEERED RECONSTRUCTION OF BONE DEFECTS” (UNIVERSITY OF ROCHESTER, priority 2008, published 2009)

Legend:
[1] = system: femoral allograft; assay: Mouse femoral allograft, torsion testing of grafted femurs (Example 1); type: in vivo, C57B1/6 mice
Description: Femoral allograft surgeries were performed on C57B1/6 mice as previously described. Briefly, a 4 mm mid-diaphyseal segment was removed by osteotomizing the femur and a processed allograft was implanted and secured in place with a stainless steel intramedullary (IM) pin. After 1 week, 8 mice were given daily subcutaneously injections of 0.4 mg/kg PTH (1-34) (Forteo, Eli Lilly and Company, Indianapolis, Ind.) while 5 mice with grafts were given the same volume of saline daily, serving as controls. Animals were sacrificed 6 weeks after surgery, the grafted femurs were carefully dissected and cleaned without disrupting the callus, and the IM pin was carefully removed. The femurs were then stored frozen at −80° C. until evaluation. After imaging, the ends of the femurs were cemented into 6.35 mm square aluminum tubes using PMMA in a custom jig to ensure axial alignment and maintain a gage length of 7.3±0.8 mm. Samples were then mounted on an EnduraTec TestBench™ system with a 200 N·mm torque cell (Bose Corp., Minnetonka, Minn.) and tested in torsion at a rate of […] until failure to determine the torsional stiffness, ultimate torque, ultimate rotation, and strain energy to failure. Mode of Failure was determined by x-ray after testing. As described previously (Reynolds D G, et al; J. Biomech. 2007; E-pub May 22) the mode of failure can be categorized by location of the failure. “Pre-union” failures occur at the graft-host junction resulting in an intact graft that simply pulled out from the callus. “Early union” failures occur near the graft-host junction, but involve partial fragmentation of the graft or host bone.

[2] = system: non-union tibial fracture; assay: Union Area from clinical CT of a patient with non-union tibial fracture; type: in vivo, human; settings: one patient, after 4 months of teriparatide treatment
Excerpt: We used our custom MATLAB software to contour the segment of bone on one side of the fracture site similarly to contouring around the murine graft. The surface area forming union to the other side of the fracture was then estimated by the software. […] FIG. 12 illustrates clinical x-rays of an anonymous patient's fractured tibia before and after 4 months of teriparatide therapy, 160 and 165, respectively and CT scan data of the patient before and after 4 months of teriparatide therapy, 170 and 175, respectively; and Union Area, shown in grey in 170 and 175, of the patient before and after 4 months of teriparatide therapy, 180 and 185, respectively. The effects of teriparatide on fracture healing were quantified as a 2.8 fold increase in Union Area.

[3] = system: grafted femurs; assay: Histology of grafted femurs (Example 4); type: in vivo, mice
Description: A second cohort of 16 animals underwent the same surgery with sacrifice of 8 animals at 4 weeks and 8 animals at 6 weeks post-surgery to evaluate the degree of vascularization of the graft and callus region using vascular profusion as described previously (Duvall 2004). Half of the animals were treated with PTH, and the other half with saline. After micro-CT imaging for vascular analysis, specimens were processed for histology. Mid-sagittal sections were stained with alcian blue, hematoxylin, eosin and orange G. Micro-CT images were manually resliced using NIH ImageJ software in the same plane as the histology sections to compare the imaging modalities (data not shown).

[4] = 0.4 mg/kg PTH (1-34) s.c. daily, 6 weeks after surgery, Mean (Standard Deviation)
[5] = of 8 PTH treated mice, all 5 controls pre-union

CC[C@H](C)[C@H](NC(=O)[C@H](CCC(=O)O)NC(=O)[C@H](CO)NC(=O)[C@@H](NC(=O)[C@@H](N)CO)C(C)C)C(=O)N[C@@H](CCC(N)=O)C(=O)N[C@@H](CC(C)C)C(=O)N[C@@H](CCSC)C(=O)N[C@@H](Cc1cnc[nH]1)C(=O)N[C@@H](CC(N)=O)C(=O)N[C@@H](CC(C)C)C(=O)NCC(=O)N[C@@H](CCCCN)C(=O)N[C@@H](Cc1cnc[nH]1)C(=O)N[C@@H](CC(C)C)C(=O)N[C@@H](CC(N)=O)C(=O)N[C@@H](CO)C(=O)N[C@@H](CCSC)C(=O)N[C@@H](CCC(=O)O)C(=O)N[C@@H](CCCN=C(N)N)C(=O)N[C@H](C(=O)N[C@@H](CCC(=O)O)C(=O)N[C@@H](Cc1c[nH]c2ccccc12)C(=O)N[C@@H](CC(C)C)C(=O)N[C@@H](CCCN=C(N)N)C(=O)N[C@@H](CCCCN)C(=O)N[C@@H](CCCCN)C(=O)N[C@@H](CC(C)C)C(=O)N[C@@H](CCC(N)=O)C(=O)N[C@@H](CC(=O)O)C(=O)N[C@H](C(=O)N[C@@H](Cc1cnc[nH]1)C(=O)N[C@@H](CC(N)=O)C(=O)N[C@@H](Cc1ccccc1)C(=O)O)C(C)C)C(C)C [PTH, PTH (1-34)]
Energy to failure [1, 4]: 0.25 (0.31)
Normalized Rotation at TUlt [1, 4]: 0.97 (0.23) deg/mm gage length
Ultimate Torque [1, 4]: 13.5 (4.7) N*mm
normalized rotation at peak torque ([1]; 6 weeks): 0.97 degrees per mm of gage length
stiffness as share of normal unoperated femur properties ([1]; after 6 weeks of healing): ~120%
strength as share of normal unoperated femur properties ([1]; after 6 weeks of healing): ~67%
specimens failing in "early union" mode [1, 5]: 2
specimens with "mature union" failure [1, 5]: 1
enhancement in ultimate torque ([1]; vs saline, 6 weeks): 1.65 fold
stiffness relative to saline (times stiffer) ([1]; vs saline, 6 weeks): 3.3 times
increase in mineralized Union Area [2]: 2.8 fold
osteoclastic graft resorption ([3]; PTH treatment for 6 weeks): did not stimulate osteoclastic graft resorption
cartilage formation at the site of bone injury ([3]; persisted through 4 weeks after surgery): Cartilage formation was increased
